Tests used:
Assay type in all cases: cell-based
AR(1-665) = test: PSA-luciferase reporter, AR(1-665) lacking LBD, PC3 cells; conditions: 10 μM, 24 hours
Experimental: (§1) FIGS. 13A-C. Effect of SID 3712502 on the expression of AR and PSA in 22Rv1 (FIG. 13A) cells. […] The cells in RPMI 1640 complete medium were treated with SID 3712502 or vehicle DMSO at the indicated concentrations (uM) for 48 h. The cells were then harvested in RIPA buffer for Western blot analysis using antibodies for AR, PSA, and GAPDH. GAPDH was included as a loading control. FIG. 13B. SID 3712502 inhibits AR transactivation of PSA-luciferase reporter. C4-2 cells were transfected with PSA6.1-Luc, GFP-AR, and pRL-CMV and then treated with indicated doses of SID 3712502 for 24 hours. FIG. 13C. SID 3712502 inhibits transactivation of PSA-luciferase reporter by AR(1-665), which lacks LBD. PC3 cells were transfected with GFP-NAR and PSA6.1 Luc overnight prior to treatment with 10 μM SID 3712502 (SID) or DMSO (C) for 24 hours. For luciferase assays, cells were lysed with passive lysis buffer (Promega) and both Firefly and Renilla luciferase activities were read using a Dual-Luciferase Reporter Assay kit (Promega) on a LmaxII384 luminometer (Molecular Devices). Firefly luciferase values were normalized to Renilla (pRL-CMV) or protein of cell lysates. Plotted values represent averaged normalized Firefly luciferase activities, each performed in triplicate, relative to DMSO control. One-way ANOVA was performed with a Bonferroni's Multiple Comparison posttest *** p<0.0001 (C). […]

[1] = test system: C4-2, LNCaP, LAPC-4, PC3 and COS-1 cell lines; test: Cytotoxicity in a panel of cultured cell lines
Experimental: The screen identified ˜30 candidate small molecules that can disrupt GFP-AR nuclear localization in the C4-2 stably-transfected cell line. They were tested further to verify they can indeed disrupt AR nuclear localization in C4-2 cells and to determine whether the inhibition of nuclear localization of GFP-AR is mediated through a general inhibition of nuclear import machinery. […] Also, the candidate small molecules were tested for their cytotoxicity using a panel of cultured cell lines.
Once the candidate small molecules were identified, they were tested if they indeed can inhibit androgen-independent nuclear localization of GFP-AR and endogenous AR in the C4-2 cells. Also, these agents were tested to see if they are cytotoxic in several different cell lines, including the AR-positive prostate cancer cell lines C4-2, LNCaP, LAPC-4 and AR-negative cell lines PC3 and COS-1 (FIG. 8). These assays led to the identification of 3 agents that specifically target androgen-independent AR nuclear localization in prostate cancer cells and have minimal cytotoxicity on other types of cells.

22Rv1 cells = test: BrdU incorporation, 22Rv1; conditions: 22Rv1, 48 hrs
Experimental: (§2) FIGS. 14A-F. Effect of SID 3712502 at indicated concentrations on BrdU incorporation in cultured AR-positive LNCaP (FIG. 14A), C4-2 (FIG. 14B), 22Rv1 (FIG. 14C), LAPC4 (FIG. 14D) cells, and AR-negative DU145 (FIG. 14E) and PC3 (FIG. 14F) cells. Cells were plated in 12-well plates at 2,500 cell per well in RPMI 1640 complete medium. After 24 hrs, the cells were treated with SID 3712502 at the indicated concentrations for 48 hrs and BrdU incorporation was assayed according to manufacturer's instructions (Invitrogen BrdU staining kit; catalog #: 93-3943). The percentage of BrdU-positive cells was determined and then normalized to generate relative BrdU index. Ctrl=DMSO control.

DU145 cells = test: BrdU incorporation, DU145; conditions: DU145, up to 50 uM, 48 hrs
Experimental: as §2

LAPC4 cells = test: BrdU incorporation, LAPC4; conditions: LAPC4, 48 hrs
Experimental: as §2

PSA = test: Western blot of AR target PSA in prostate cancer cells
Experimental: (§3) FIGS. 10A and 10B. Down-regulation of the expression of AR and its downstream target PSA by SID 3712502 in C4-2 (FIG. 10A) and LNCaP (FIG. 10B) cells. Cells in RPMI 1640 complete medium were treated with SID 3712502 or vehicle DMSO at the indicated concentrations for 48 hrs. The cells were then harvested in RIPA buffer for Western blot analysis using antibodies for AR, PSA, and GAPDH. GAPDH was included as a loading control.
as §1, with “PC3 cells were transfected with GFP-NAR and PSA6.1 Luc overnight prior to treatment with 10 μM SID 3712502 (SID) or DMSO (C) for 24 hours.” left out, “Devices).” for “Devices). Firefly luciferase values were normalized to Renilla (pRL-CMV) or protein of cell lysates. Plotted values represent averaged normalized Firefly luciferase activities, each performed in triplicate, relative to DMSO control. One-way ANOVA was performed with a Bonferroni's Multiple Comparison posttest *** p<0.0001 (C).”

[2] = test system: AR transactivation of PSA-luciferase reporter; test: PSA-luciferase reporter, full-length AR, C4-2 cells; conditions: 24 hours
Experimental: as §1

AR = test: Western blot of AR protein in prostate cancer cells; conditions: for endogenous AR level (degradation): 48 hrs
Experimental: as §3
FIGS. 13A-C. Effect of SID 3712502 on the expression of AR and PSA in 22Rv1 (FIG. 13A) cells. […] The cells in RPMI 1640 complete medium were treated with SID 3712502 or vehicle DMSO at the indicated concentrations (uM) for 48 h. The cells were then harvested in RIPA buffer for Western blot analysis using antibodies for AR, PSA, and GAPDH. GAPDH was included as a loading control. FIG. 13B. SID 3712502 inhibits AR transactivation of PSA-luciferase reporter. C4-2 cells were transfected with PSA6.1-Luc, GFP-AR, and pRL-CMV and then treated with indicated doses of SID 3712502 for 24 hours. FIG. 13C. SID 3712502 inhibits transactivation of PSA-luciferase reporter by AR(1-665), which lacks LBD. PC3 cells were transfected with GFP-NAR and PSA6.1 Luc overnight prior to treatment with 10 μM SID 3712502 (SID) or DMSO (C) for 24 hours. For luciferase assays, cells were lysed with passive lysis buffer (Promega) and both Firefly and Renilla luciferase activities were read using a Dual-Luciferase Reporter Assay kit (Promega) on a LmaxII384 luminometer (Molecular Devices). Firefly luciferase values were normalized to Renilla (pRL-CMV) or protein of cell lysates. Plotted values represent averaged normalized Firefly luciferase activities, each performed in triplicate, relative to DMSO control. One-way ANOVA was performed with a Bonferroni's Multiple Comparison posttest *** p<0.0001 (C). Student's t-test was performed; ***p=0.0002 (D).

GFP-GR = target: T1, GFP-GR (Homo sapiens, UniProt P04150); test: GFP-GR nuclear localization in transfected C4-2 cells; conditions: co-treated with 0.5 μM Dexamethasone, 24 hours
T1 construct: expressed in transfected cells; host or cells: C4-2
Experimental: FIG. 7. The effect of SID 14730725 and SID 3712502 on nuclear localization of GFP-ER (Top panel) and GFP-GR (Bottom panel) in C4-2 cells. C4-2 cells were transfected with GFP-ER or GFP-GR overnight. The following day the cells were treated with different concentrations (uM) of the small molecules. The cells transfected with GFP-GR were co-treated with 0.5 μM Dexamethasone. Cells were imaged 24 hours after the treatment with the small molecules.

PC3 cells [3] = test: Cell survival, crystal violet staining, PC3; conditions: 48 hrs
Experimental: (§4) FIGS. 8A and 8B. Effect of SID 14730725 and SID 3712502 on survival of PC3 (FIG. 8A) and C4-2 cells (FIG. 8B). PC3 or C4-2 cells were plated in 12-well plates at 2,500 cell per well in RPMI 1640 complete medium. After 24 hrs, the cells were treated with SID 14730725 or SID 3712502 at the indicated concentrations for 48 hrs. The wells were washed with PBS thrice and fixed in 0.5% crystal Violet in methanol. C=control; treated with vehicle DMSO.

C4-2 cells = test: Cell survival, crystal violet staining, C4-2; conditions: 48 hrs
Experimental: as §4

PC3 cells [4] = test: BrdU incorporation, PC3; conditions: PC3, up to 50 uM, 48 hrs
Experimental: as §2

T1 sequence (P04150 whole entry): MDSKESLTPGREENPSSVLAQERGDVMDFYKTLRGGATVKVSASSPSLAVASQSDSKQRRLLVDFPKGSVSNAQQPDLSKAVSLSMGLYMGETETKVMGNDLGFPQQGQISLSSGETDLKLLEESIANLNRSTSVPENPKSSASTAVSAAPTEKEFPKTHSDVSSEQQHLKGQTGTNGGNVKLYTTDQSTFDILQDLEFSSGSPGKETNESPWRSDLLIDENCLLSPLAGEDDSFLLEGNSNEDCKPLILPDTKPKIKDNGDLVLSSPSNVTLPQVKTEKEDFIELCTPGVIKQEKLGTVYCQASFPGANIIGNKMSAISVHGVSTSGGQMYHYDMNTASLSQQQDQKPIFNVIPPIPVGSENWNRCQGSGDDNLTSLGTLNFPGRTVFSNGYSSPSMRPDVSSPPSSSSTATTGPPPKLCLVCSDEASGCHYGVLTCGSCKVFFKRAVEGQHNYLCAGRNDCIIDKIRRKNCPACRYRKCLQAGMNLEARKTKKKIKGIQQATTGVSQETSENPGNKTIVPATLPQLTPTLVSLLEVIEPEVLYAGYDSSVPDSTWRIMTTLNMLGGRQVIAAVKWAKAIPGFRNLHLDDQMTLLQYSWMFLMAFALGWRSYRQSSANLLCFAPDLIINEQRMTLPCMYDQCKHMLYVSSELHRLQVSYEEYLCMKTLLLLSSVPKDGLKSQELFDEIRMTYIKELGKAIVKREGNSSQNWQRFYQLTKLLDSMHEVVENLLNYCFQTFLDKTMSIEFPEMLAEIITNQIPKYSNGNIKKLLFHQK

`Cc1cccc(N2CCN(C(=O)CSCc3c(C)noc3C)CC2)c1C` [SID 3712502, 2-[(3,5-dimethyl-1,2-oxazol-4-yl)methylsulfanyl]-1-[4-(2,3-dimethylphenyl)piperazin-1-yl]ethanone] was tested, and the “transactivation activity of AR(1-665) (PSA-luciferase)” value (AR(1-665)) was “can inhibit the transactivation activity”, the “cytotoxicity to various cultured cells” value [1] was “little or no cytotoxicity” and the “proliferation (BrdU incorporation)” value (22Rv1 cells) was “inhibited the proliferation”. The “proliferation (BrdU incorporation)” value (DU145 cells) was “no detectable effect”, the “proliferation (BrdU incorporation)” value (LAPC4 cells) was “inhibited the proliferation” and the “AR-target gene PSA expression” value (PSA; 2 uM, 48 h, C4-2 and 22Rv1 cells) was “significantly inhibited”. For the same compound, the PSA expression (PSA; LNCaP cells, 48 hrs) was “Down-regulation”, the “transactivation activity of full-length AR (PSA-luciferase)” value [2] was “can inhibit the transactivation activity” and the AR protein levels (AR; 10-50 uM, 48 h, C4-2 and 22Rv1 cells) was “inhibited AR protein levels”. For the same compound, the “endogenous AR level (degradation)” value (AR; C4-2 cells) was “can cause degradation of endogenous AR”, the “endogenous AR level (degradation)” value (AR; LNCaP cells) was “can cause degradation of endogenous AR” and the “localization of GFP-GR” value (GFP-GR) was “no effect”. For the same compound, the cytotoxicity (PC3 cells [3]) was “little or no cytotoxicity”, the cytotoxicity (C4-2 cells) was “little or no cytotoxicity” and the “proliferation (BrdU incorporation)” value (PC3 cells [4]) was “no detectable effect”.
